Test results reported in article PMC4566129, “Factors Governing P-Glycoprotein-Mediated Drug–Drug Interactions at the Blood–Brain Barrier Measured with Positron Emission Tomography” (Molecular Pharmaceutics, 2015).
Read-outs that look alike come from different tables or passages of the source. Marks after values point to notes of the source that are not given here.

How the values were obtained:
LLC wild-type cells = LLC wild-type cells (data not shown)
Description: (§1) Tariquidar or solvent was added to both compartments. […] To determine membrane integrity, transepithelial electrical resistance (TEER) and, in representative wells, [^14C]mannitol diffusion were measured with criteria for exclusion described earlier.[27]
(§2) Apparent substrate permeability (Papp) from the basolateral to the apical compartment (b–A) and vice versa (a–B) was calculated using the following equation: [drawing 1] where dQ/dt (disintegration/min) is the permeability rate of the substrate into the sample compartment, A the growth area of the monolayer, and C0 the initial substrate concentration in the donor compartment. The transport ratio (TR) was calculated by dividing Papp(b–A) by Papp(a–B). […] With Prism6 software (GraphPad Software, La Jolla, CA, USA) a sigmoidal model with variable slope was used to analyze concentration–response relationships by nonlinear regression.

ABCB1 [1] = molecular target: T1, ABCB1 (Homo sapiens, UniProt P08183)
T1 sequence (P08183 whole entry): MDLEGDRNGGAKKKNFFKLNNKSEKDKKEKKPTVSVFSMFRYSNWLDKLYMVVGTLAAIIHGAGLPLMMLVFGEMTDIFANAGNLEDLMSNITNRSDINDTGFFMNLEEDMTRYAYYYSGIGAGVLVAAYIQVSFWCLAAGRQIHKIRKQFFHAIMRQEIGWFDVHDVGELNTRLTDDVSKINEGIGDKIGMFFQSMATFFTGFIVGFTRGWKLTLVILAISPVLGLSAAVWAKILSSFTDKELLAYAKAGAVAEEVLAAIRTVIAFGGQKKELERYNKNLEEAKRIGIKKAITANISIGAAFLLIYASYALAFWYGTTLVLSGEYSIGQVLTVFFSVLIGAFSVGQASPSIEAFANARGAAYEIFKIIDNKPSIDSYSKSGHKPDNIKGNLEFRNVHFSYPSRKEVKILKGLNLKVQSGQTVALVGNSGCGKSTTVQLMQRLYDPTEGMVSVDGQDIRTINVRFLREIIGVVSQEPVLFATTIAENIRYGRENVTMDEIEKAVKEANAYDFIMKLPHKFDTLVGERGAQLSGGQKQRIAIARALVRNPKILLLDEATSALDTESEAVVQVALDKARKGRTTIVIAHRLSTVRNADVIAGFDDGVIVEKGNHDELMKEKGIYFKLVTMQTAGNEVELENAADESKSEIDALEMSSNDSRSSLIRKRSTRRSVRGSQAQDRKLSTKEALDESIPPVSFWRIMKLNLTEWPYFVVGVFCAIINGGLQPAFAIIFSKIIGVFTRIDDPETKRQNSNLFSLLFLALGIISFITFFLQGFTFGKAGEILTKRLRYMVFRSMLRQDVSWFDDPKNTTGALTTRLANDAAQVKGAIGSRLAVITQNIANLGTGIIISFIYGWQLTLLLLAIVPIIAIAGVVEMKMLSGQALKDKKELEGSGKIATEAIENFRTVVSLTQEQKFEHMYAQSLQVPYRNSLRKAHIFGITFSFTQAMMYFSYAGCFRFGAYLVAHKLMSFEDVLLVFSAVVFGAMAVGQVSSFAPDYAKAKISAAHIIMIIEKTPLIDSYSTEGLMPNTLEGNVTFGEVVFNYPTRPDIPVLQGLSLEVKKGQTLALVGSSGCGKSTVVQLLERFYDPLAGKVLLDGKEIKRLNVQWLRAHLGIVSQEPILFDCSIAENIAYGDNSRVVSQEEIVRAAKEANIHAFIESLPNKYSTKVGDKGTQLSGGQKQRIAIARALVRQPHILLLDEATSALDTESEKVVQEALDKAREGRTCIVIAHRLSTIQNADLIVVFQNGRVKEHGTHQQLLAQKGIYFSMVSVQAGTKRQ

Abcb1a [2] = molecular target: T2, Abcb1a (Mus musculus, UniProt P21447); assay: Bidirectional transport assay in Abcb1a-transfected LLC cells (LLC-Abcb1a) without/with tariquidar; settings: for IC50: normalized TR over 6 h, estimated by sigmoidal fit
T2 sequence (P21447 whole entry): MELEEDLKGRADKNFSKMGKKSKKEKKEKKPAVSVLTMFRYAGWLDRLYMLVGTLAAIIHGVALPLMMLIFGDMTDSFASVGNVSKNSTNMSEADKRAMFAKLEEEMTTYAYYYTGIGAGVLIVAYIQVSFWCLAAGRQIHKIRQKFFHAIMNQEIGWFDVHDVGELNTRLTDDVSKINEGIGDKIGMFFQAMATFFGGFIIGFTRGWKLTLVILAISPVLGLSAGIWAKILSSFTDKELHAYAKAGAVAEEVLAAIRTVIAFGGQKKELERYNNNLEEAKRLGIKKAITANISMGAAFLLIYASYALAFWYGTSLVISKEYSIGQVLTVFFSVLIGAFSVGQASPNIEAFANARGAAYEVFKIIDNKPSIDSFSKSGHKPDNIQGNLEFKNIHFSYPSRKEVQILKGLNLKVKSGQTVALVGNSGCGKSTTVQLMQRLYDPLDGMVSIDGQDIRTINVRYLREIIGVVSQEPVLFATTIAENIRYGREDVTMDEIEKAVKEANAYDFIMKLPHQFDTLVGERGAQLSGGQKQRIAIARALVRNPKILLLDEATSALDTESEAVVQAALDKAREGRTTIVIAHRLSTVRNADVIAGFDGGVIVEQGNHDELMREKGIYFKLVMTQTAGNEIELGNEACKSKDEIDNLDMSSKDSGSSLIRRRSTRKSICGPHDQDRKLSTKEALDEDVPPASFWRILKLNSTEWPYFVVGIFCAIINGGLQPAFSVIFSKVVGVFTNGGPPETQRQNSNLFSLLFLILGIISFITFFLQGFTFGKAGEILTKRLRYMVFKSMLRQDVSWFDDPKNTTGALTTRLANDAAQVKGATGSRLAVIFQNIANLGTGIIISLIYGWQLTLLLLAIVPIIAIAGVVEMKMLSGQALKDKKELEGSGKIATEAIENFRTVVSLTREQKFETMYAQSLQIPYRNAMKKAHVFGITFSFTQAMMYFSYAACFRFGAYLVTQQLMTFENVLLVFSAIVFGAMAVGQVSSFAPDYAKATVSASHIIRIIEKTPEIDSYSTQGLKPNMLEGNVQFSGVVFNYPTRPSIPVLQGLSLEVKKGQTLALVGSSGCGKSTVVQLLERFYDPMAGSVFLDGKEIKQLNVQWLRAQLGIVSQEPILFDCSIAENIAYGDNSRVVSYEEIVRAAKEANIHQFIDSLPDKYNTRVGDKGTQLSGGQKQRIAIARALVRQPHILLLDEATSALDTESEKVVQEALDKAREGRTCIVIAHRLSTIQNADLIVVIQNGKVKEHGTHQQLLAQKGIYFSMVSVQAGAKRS
Description: LLC-PK1 cells transduced with human MDR1 (LLC-ABCB1) or murine Mdr1a (LLC-Abcb1a) were kindly provided by Prof. P. Borst and Dr. A. Schinkel (The Netherlands Cancer Institute, Amsterdam, The Netherlands).
as §1, §2

ABCB1 [3] = molecular target: T1, ABCB1; settings: cited from earlier work
Abcb1a [4] = molecular target: T2, Abcb1a; assay: PET imaging of radiotracer brain distribution (Kb,brain) in C57BL/6N wild-type, Abcb1a/1b(−/−) and Abcb1a/1b(+/−) mice and tariquidar concentration–response
Description: (§3) Animal respiratory rate and body temperature were constantly monitored (SA Instruments Inc., Stony Brook, NY, USA), and the isoflurane level was adjusted (1.5–2% in oxygen) to achieve a constant and sufficient depth of anesthesia. Anesthesia was maintained for the whole pretreatment and imaging period. Following administration, anatomical magnetic resonance imaging (MRI) was performed on a 1 T benchtop MRI (ICON, Bruker BioSpin GmbH, Ettlingen, Germany) using a modified 3D T1-weighted gradient echo sequence (T1-FLASH) and the following imaging parameters: echo time (TE) = 4.7 ms; repetition time (TR) = 27 ms; flip angle (FA) = 25°; field of view (FOV) = 7.6 × 2.6 × 2.4 cm; matrix = 380 × 130; 32 slices; slice thickness = 750 μm; total imaging time = 22 min. Following MRI, the animal bed was transferred into the gantry of a microPET scanner (Focus 220, Siemens Medical Solutions, Knoxville, TN, USA), and a 10 min transmission scan using a ^57Co point source was recorded.
(§4) After completion of the imaging procedure, a terminal blood sample was withdrawn under isoflurane anesthesia from the retro-orbital sinus vein, and the animals were sacrificed by cervical dislocation. Blood was centrifuged (17000g, 4 °C, 4 min) to obtain plasma, and whole brains were removed. […] The measured radioactivity data were corrected for radioactive decay and expressed as standardized uptake value ((radioactivity per g/injected radioactivity) × body weight). The remainder of the plasma samples was stored at −80 °C until measurement of tariquidar plasma concentrations using a previously described combined liquid chromatography tandem mass spectrometry (LC/MS) assay.[17]
(§5) Images were reconstructed using Fourier rebinning of the 3D sonograms followed by two-dimensional filtered back projection with a ramp filter, resulting in an image voxel size of 0.4 × 0.4 × 0.796 mm^3. A standard data correction protocol (normalization, attenuation, and decay correction) was applied to the PET data. The PET units were converted into units of radioactivity concentration by applying a calibration factor derived from imaging of a cylindrical phantom with a known ^11C-radioactivity concentration. Using the image analysis software Amide,[31] whole brain was manually outlined on the PET images, and time–activity curves, expressed in standardized uptake value, were derived.
(§6) Concentration–response relationships were analyzed by nonlinear regression analysis based on a sigmoidal model with variable slope using Prism 6 software.

Abcb1a [5] = assay: as above
Description: as §3, §4, §5, §6

Abcb1a/1b = Abcb1a/1b (Mus musculus, UniProt P21447); settings: for Kp,brain: wild-type FVB/N mice, 25 min after injection
Abcb1a/1b, sequence (P21447 whole entry): as above
Description: Blood and brain were transferred to preweighed tubes and measured for radioactivity in a gamma counter. The measured radioactivity data were corrected for radioactive decay, and Kb,brain values were calculated.

C57BL/6N mouse plasma = assay: Plasma protein binding (ultrafiltration) in mouse plasma; type: in vitro ADME
Description: (§7) After incubation, plasma aliquots (200 μL) were transferred to the preconditioned Amicon filters, which were centrifuged (12000g, 30 min, 25 °C). Filters and tubes were separately measured in a gamma counter, and the obtained data were decay corrected. Percent plasma protein binding was calculated as percent radioactivity in the filter relative to total radioactivity (filter and tube).

human plasma [6] = assay: Plasma protein binding (ultrafiltration) in human plasma; type: in vitro ADME; settings: without tariquidar
Description: as §7

[7] = short anesthesia (5 min), tariquidar 15 mg/kg, 25 min after injection
Description: (§8) In one cohort, all procedures were performed in isoflurane anesthetized (1.5–2% in oxygen) animals resulting in a total anesthesia length of 160 min (= long anesthesia). In the second cohort, pretreatment and radiotracer injection were performed in awake animals which were only shortly anesthetized prior to retro-orbital blood sampling, resulting in a total anesthesia length of 5 min (= short anesthesia). […] Blood was centrifuged to obtain plasma, and whole brains were removed. To plasma and homogenized brain tissue were added unlabeled verapamil (10 mg/mL in water, 100 μL) or N-desmethyl-loperamide (10 mg/mL in water/acetonitrile; 1/1, v/v, 100 μL), and proteins were precipitated by the addition of acetonitrile (1 μL per μL of plasma and 0.5 mL per brain). The homogenates were vortexed and then centrifuged (12000g, 5 min, 21 °C). Each supernatant (plasma, brain, 3 μL each) and diluted radiotracer solution as reference were spotted on thin-layer chromatography (TLC) plates (silica gel 60F 254 nm, 20 × 20 cm; Merck, Darmstadt, Germany), and plates were developed in ethyl acetate/triethylamine (9/1, v/v). Detection was performed by placing the TLC plates on multisensitive phosphor screens (PerkinElmer Life Sciences, Waltham, MA). The screens were scanned at 300 dpi resolution using a PerkinElmer Cyclone Plus Phosphor Imager (PerkinElmer Life Sciences).

Abcb1a [8] = molecular target: T2, Abcb1a; settings: for Kp,brain,VPM or Kp,brain,dLOP fold increase, tariquidar vs vehicle: metabolite corrected; for Kp,brain for unchanged parent tracer (Kp,brain,VPM or Kp,brain,dLOP): 25 min, corrected for radiolabeled metabolites
Description: as §8

[9] = Tariquidar plasma concentration at the end of the PET scan (LC/MS); type: in vivo, mouse; settings: 30 mg/kg iv
human plasma [10] = tested on: human plasma; design: method as in PMID 23340958; settings: human plasma ref 38; cited from earlier work
ABCB1 [11] = molecular target: T1, ABCB1; assay: cell-based; settings: ABCB1-transfected LLC cells, normalized TR over 6 h, estimated by sigmoidal fit
ABCB1 [12] = tested on: ABCB1; design: method as in PMID 20016890; settings: rats ref 35; read-out: in vivo IC50 of tariquidar for enhancement of brain distribution of (R)-[11C]verapamil; cited from earlier work

[3H]C([3H])([3H])NC(=O)C(CCN1CCC(O)(c2ccc(Cl)cc2)CC1)(c1ccccc1)c1ccccc1 [[^3H]-N-desmethyl-loperamide]
transport ratio (TR) (LLC wild-type cells): 1.6 ± 0.03
transport ratio (TR), Papp(b–A)/Papp(a–B) (ABCB1 [1]; ABCB1-transfected LLC cells, 5 nM substrate, without tariquidar): 18.5 ± 1.7
TR relative to TR of [3H]verapamil (ABCB1 [1]; ABCB1-transfected cells): 5 times
transport ratio relative to [3H]verapamil (ABCB1 [1]; in ABCB1- and Abcb1a-transfected cells (both cell types)): 5 to 9 times
transport ratio (TR), Papp(b–A)/Papp(a–B) (Abcb1a [2]; Abcb1a-transfected LLC cells, 5 nM substrate, without tariquidar): 27.6 ± 6.5
TR relative to TR of [3H]verapamil (Abcb1a [2]; Abcb1a-transfected cells): 8.6 times

CNC(=O)C(CCN1CCC(O)(c2ccc(Cl)cc2)CC1)(c1ccccc1)c1ccccc1 [[^11C]-N-desmethyl-loperamide]
increase in distribution to the human brain following administration of tariquidar (ABCB1 [3]; humans, compared with PET scans without tariquidar ref 18-21): 2 to 5 times
brain-to-blood concentration ratio (Kb,brain) (Abcb1a [4]; heterozygous Abcb1a/1b(+/−) mice): 1.54 ± 0.19
increase in Kb,brain over vehicle treated wild-type mice (Abcb1a [4]; heterozygous Abcb1a/1b(+/−) mice, not significant): 1.1 fold
brain-to-blood concentration ratio (Kb,brain) (Abcb1a [4]; vehicle treated C57BL/6N wild-type mice, end of PET scan (50–60 min), total radioactivity): 1.42 ± 0.16
brain-to-blood concentration ratio (Kb,brain) (Abcb1a [4]; wild-type mice after 30 mg/kg tariquidar iv 2 h before PET): 2.58 ± 0.44
blood radioactivity concentrations after tariquidar pretreatment compared to vehicle (Abcb1a [5]; C57BL/6N wild-type mice, end of PET scan): increased
increase in Kb,brain over vehicle treated wild-type mice (Abcb1a [5]; homozygous Abcb1a/1b(−/−) mice): 2.8 fold
brain-to-blood concentration ratio (Kb,brain) (Abcb1a [5]; vehicle treated homozygous Abcb1a/1b(−/−) mice): 3.93 ± 0.36
Kb,brain fold increase, Abcb1a/1b(−/−) vs wild-type (Abcb1a/1b; awake): 13.8 fold
Kp,brain fold increase, Abcb1a/1b(−/−) vs wild-type (Abcb1a/1b; awake): 13.7 fold
Kp,brain (Abcb1a/1b; awake): 0.20 ± 0.05
Kb,brain fold increase, Abcb1a/1b(−/−) vs wild-type (Abcb1a/1b; isoflurane): 5.7 fold
Kp,brain fold increase, Abcb1a/1b(−/−) vs wild-type (Abcb1a/1b; isoflurane): 6.0 fold
Kp,brain (Abcb1a/1b; isoflurane): 0.20 ± 0.04
percentage of non-protein bound radiotracer (C57BL/6N mouse plasma; with tariquidar (2400 nM)): 12.0 ± 1.0%
percentage of non-protein bound radiotracer (C57BL/6N mouse plasma; without tariquidar): 14.5 ± 1.8%
percentage of non-protein bound radiotracer (human plasma [6]): 13.9 ± 0.7%
percentage of unchanged radiotracer in brain [7]: 70 ± 11%
percentage of unchanged radiotracer in plasma [7]: 18 ± 1%
percentage of unchanged radiotracer in plasma ([7]; listed as [^11C]-N-Desmethyl-loperamide): 18 ± 1 ^d %
Kb,brain fold increase, tariquidar vs vehicle (Abcb1a [8]; long anesthesia (160 min)): 4.0 fold
Kp,brain fold increase, tariquidar vs vehicle (Abcb1a [8]; long anesthesia (160 min)): 3.7 fold
Kp,brain,VPM or Kp,brain,dLOP fold increase, tariquidar vs vehicle (Abcb1a [8]; long anesthesia (160 min)): 18.3 fold
Kp,brain for unchanged parent tracer (Kp,brain,VPM or Kp,brain,dLOP) (Abcb1a [8]; long anesthesia (160 min), tariquidar 15 mg/kg): 7.34 ± 0.58
Kp,brain for unchanged parent tracer (Kp,brain,VPM or Kp,brain,dLOP) (Abcb1a [8]; long anesthesia (160 min), vehicle): 0.40 ± 0.16
Kb,brain fold increase, tariquidar vs vehicle (Abcb1a [8]; short anesthesia (5 min)): 7.0 fold
Kp,brain fold increase, tariquidar vs vehicle (Abcb1a [8]; short anesthesia (5 min)): 6.6 fold
Kp,brain,VPM or Kp,brain,dLOP fold increase, tariquidar vs vehicle (Abcb1a [8]; short anesthesia (5 min)): 9.6 fold
Kp,brain for unchanged parent tracer (Kp,brain,VPM or Kp,brain,dLOP) (Abcb1a [8]; short anesthesia (5 min), tariquidar 15 mg/kg): 4.85 ± 0.29 ^b
Kp,brain for unchanged parent tracer (Kp,brain,VPM or Kp,brain,dLOP) (Abcb1a [8]; short anesthesia (5 min), vehicle): 0.51 ± 0.18

COc1cc2c(cc1OC)CN(CCc1ccc(NC(=O)c3cc(OC)c(OC)cc3NC(=O)c3cnc4ccccc4c3)cc1)CC2 [tariquidar]
IC50 (ABCB1 [3]; read-out: in vivo IC50 of tariquidar for enhancement of brain distribution of (R)-[11C]verapamil, humans ref 19): 2250 nM
IC50 (Abcb1a [4]): 1330 nM
Hill slope, Kb,brain of (R)-[11C]verapamil vs tariquidar plasma concentration (Abcb1a [4]; C57BL/6N wild-type mice): 2.98
Hill slope, Kb,brain of [11C]-N-desmethyl-loperamide vs tariquidar plasma concentration (Abcb1a [4]; C57BL/6N wild-type mice): 1.44
IC50 (Abcb1a [4]; in vivo IC50 of tariquidar (plasma concentration) for increase in Kb,brain of (R)-[11C]verapamil, C57BL/6N wild-type mice, normalized to Abcb1a/1b(−/−) mice): 1050 nM
IC50 (Abcb1a [4]; unbound tariquidar in vivo IC50, (R)-[11C]verapamil, mice, in vivo IC50 corrected for plasma protein binding of tariquidar): 6.6 nM
IC50 (Abcb1a [4]; unbound tariquidar in vivo IC50, [11C]-N-desmethyl-loperamide, mice, in vivo IC50 corrected for plasma protein binding of tariquidar): 8.4 nM
tariquidar plasma concentration (mean ± SD) [9]: 3.508 ± 0.427 µM
tariquidar plasma concentration (range) [9]: 2802 to 3863 nM
Hill slope, inhibition of [3H]-N-desmethyl-loperamide transport (ABCB1 [1]; ABCB1-transfected cells): 2.1
Hill slope, inhibition of [3H]verapamil transport (ABCB1 [1]; ABCB1-transfected cells): 10.8
Hill slope, inhibition of [3H]-N-desmethyl-loperamide transport (Abcb1a [2]; Abcb1a-transfected cells): 1.3
Hill slope, inhibition of [3H]verapamil transport (Abcb1a [2]; Abcb1a-transfected cells): 2.6
IC50 (Abcb1a [2]; IC50 of tariquidar for inhibition of [3H]-N-desmethyl-loperamide transport, Abcb1a-transfected LLC cells): 6 nM
IC50 (Abcb1a [2]; IC50 of tariquidar for inhibition of [3H]verapamil transport, Abcb1a-transfected LLC cells): 17.9 nM
unbound fraction in human plasma (human plasma [10]): 0.0063
IC50 (ABCB1 [11]; IC50 of tariquidar for inhibition of [3H]-N-desmethyl-loperamide transport): 9 nM
IC50 (ABCB1 [11]; IC50 of tariquidar for inhibition of [3H]verapamil transport): 17.2 nM
IC50 (ABCB1 [12]): 650 nM
